Measurements as given in PubChem BioAssay AID248 (DTP/NCI, 2004).
Values joined by “and” are separate entries in the source; they are usually repeats but may differ in a detail not shown here. Equal entries are not always repeated. Inconclusive results and toxic doses are left out. No stated cut-off is given here; in the data, active means T/C of 150% or more; inactive means T/C below 125%.

Test system: L1210 leukemia ip in BDF1 mice, survival T/C
Test: NCI In Vivo Anticancer Drug Screen. Data for tumor model L1210 Leukemia (intraperitoneal) in B6D2F1 (BDF1) mice
Settings: endpoint: mean survival time, higher = longer survival
Method in brief: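 Transplantable tumor model; survival measured in treated vs vehicle control mice. Value = treated/control.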

[1] = dose: 100.0 mg/kg/injection, schedule: Q04DX002 (ip), vehicle: saline
[2] = dose: 200.0 mg/kg/injection, schedule: Q04DX002 (ip), vehicle: saline
[3] = dose: 400.0 mg/kg/injection, schedule: Q04DX002 (ip), vehicle: saline
[4] = dose: 12.5 mg/kg/injection, schedule: Q01DX009 (ip), vehicle: saline
[5] = dose: 25.0 mg/kg/injection, schedule: Q01DX009 (ip), vehicle: saline
[6] = dose: 50.0 mg/kg/injection, schedule: Q01DX009 (ip), vehicle: saline
[7] = dose: 100.0 mg/kg/injection, schedule: Q01DX001 (ip), vehicle: saline with Tween-80
[8] = dose: 100.0 mg/kg/injection, schedule: Q04DX003 (ip), vehicle: saline with Tween-80
[9] = dose: 200.0 mg/kg/injection, schedule: Q01DX001 (ip), vehicle: saline with Tween-80
[10] = dose: 200.0 mg/kg/injection, schedule: Q04DX003 (ip), vehicle: saline with Tween-80
[11] = dose: 400.0 mg/kg/injection, schedule: Q04DX003 (ip), vehicle: saline with Tween-80
[12] = dose: 100.0 mg/kg/injection, schedule: Q01DX009 (ip), vehicle: saline
[13] = dose: 100.0 mg/kg/injection, schedule: Q01DX009 (ip), vehicle: Klucel (hydroxypropylcellulose) (HPC)
[14] = dose: 200.0 mg/kg/injection, schedule: Q01DX009 (ip), vehicle: Klucel (hydroxypropylcellulose) (HPC)
[15] = dose: 400.0 mg/kg/injection, schedule: Q01DX009 (ip), vehicle: Klucel (hydroxypropylcellulose) (HPC)
[16] = dose: 100.0 mg/kg/injection, schedule: Q04DX003 (ip), vehicle: saline
[17] = dose: 200.0 mg/kg/injection, schedule: Q04DX003 (ip), vehicle: saline
[18] = dose: 100.0 mg/kg/injection, schedule: Q01DX009 (ip), vehicle: saline with Tween-80
[19] = dose: 200.0 mg/kg/injection, schedule: Q01DX009 (ip), vehicle: saline with Tween-80
[20] = dose: 400.0 mg/kg/injection, schedule: Q01DX009 (ip), vehicle: saline with Tween-80

Measured: T/C

O=C(O)CNC(=O)N1CCCC1
inactive: [1] 90 % of control | [2] 96 % of control | [3] 104 % of control

CC1=C2CCC(C)C23C2C(=O)OC(=O)C2C1C1C(=O)OC(=O)C13 (stereo not drawn)
inactive: [4] 107 % of control | [5] 102 % of control | [6] 103 % of control

O=[N+]([O-])c1ccc(Oc2ccc(Cl)cc2Cl)c([N+](=O)[O-])c1
inactive: [7] 103 % of control | [8] 105 % of control | [9] 94 % of control | [10] 102 % of control | dose: 222.0 mg/kg/injection, schedule: Q01DX Z (ip), vehicle: methylcellulose (MC) 100 % of control | dose: 333.0 mg/kg/injection, schedule: Q01DX Z (ip), vehicle: methylcellulose (MC) 92 % of control | dose: 400.0 mg/kg/injection, schedule: Q01DX001 (ip), vehicle: saline with Tween-80 97 % of control | [11] 99 % of control | dose: 500.0 mg/kg/injection, schedule: Q01DX Z (ip), vehicle: methylcellulose (MC) 95 % of control

Cc1noc(N)c1[N+](=O)[O-]
inactive: [4] 97 % of control | [5] 109 % of control | [6] 97 % of control | [12] 86 % of control | dose: 100.0 mg/kg/injection, schedule: Q04DX003 (ip), vehicle: other 92 % of control | dose: 200.0 mg/kg/injection, schedule: Q04DX003 (ip), vehicle: other 96 % of control | dose: 400.0 mg/kg/injection, schedule: Q04DX003 (ip), vehicle: other 92 % of control

Cc1cccc(S(=O)(=O)CS(=O)(=O)c2cccc(C)c2)c1
inactive: dose: 75.0 mg/kg/injection, schedule: Q01DX001 (ip), vehicle: carboxymethylcellulose (CMC) 102 % of control | dose: 150.0 mg/kg/injection, schedule: Q01DX001 (ip), vehicle: carboxymethylcellulose (CMC) 96 % of control | dose: 300.0 mg/kg/injection, schedule: Q01DX001 (ip), vehicle: carboxymethylcellulose (CMC) 91 % of control

N=C(N)N/N=C(\C=N\NC(=N)N)c1ccc(Oc2ccc(C(/C=N/NC(=N)N)=N\NC(=N)N)cc2)cc1
inactive: dose: 3.8 mg/kg/injection, schedule: Q01DX Z (ip), vehicle: saline 98 % of control | dose: 7.5 mg/kg/injection, schedule: Q01DX Z (ip), vehicle: saline 114 % of control | dose: 15.0 mg/kg/injection, schedule: Q01DX Z (ip), vehicle: saline 118 % of control

S=C(c1ccccc1)N(c1ccccc1)C1CCCCC1
inactive: dose: 100.0 mg/kg/injection, schedule: Q04DX003 (ip), vehicle: gum acacia 91 % of control | dose: 200.0 mg/kg/injection, schedule: Q04DX003 (ip), vehicle: gum acacia 88 % of control | dose: 400.0 mg/kg/injection, schedule: Q04DX003 (ip), vehicle: gum acacia 88 % of control

O=S(=O)(Nc1cc(C(F)(F)F)ccc1Cl)c1ccc(Cl)cc1
inactive: [1] 90 % of control | [2] 106 % of control | [3] 97 % of control

COC(=O)C(c1ccccc1)C(Br)C(=O)c1ccc(Cl)cc1 (stereo not drawn)
inactive: [13] 92 % of control | [14] 97 % of control | [15] 94 % of control

COC(=O)C12C3C=CC(O3)C1(C(=O)OC)C1C=CC2O1 (stereo not drawn)
inactive: dose: 87.5 mg/kg/injection, schedule: Q01DX009 (ip), vehicle: Klucel (hydroxypropylcellulose) (HPC) 100 % of control | dose: 175.0 mg/kg/injection, schedule: Q01DX009 (ip), vehicle: Klucel (hydroxypropylcellulose) (HPC) 97 % of control | dose: 350.0 mg/kg/injection, schedule: Q01DX009 (ip), vehicle: Klucel (hydroxypropylcellulose) (HPC) 101 % of control

CS(=O)(=O)CC(=O)c1ccccc1
inactive: dose: 37.5 mg/kg/injection, schedule: Q01DX009 (ip), vehicle: saline with Tween-80 87 % of control | dose: 75.0 mg/kg/injection, schedule: Q01DX009 (ip), vehicle: saline with Tween-80 90 % of control | [8] 95 % of control | dose: 150.0 mg/kg/injection, schedule: Q01DX009 (ip), vehicle: saline with Tween-80 87 % of control | [10] 96 % of control

COc1ccccc1[N+](C)(C)C
inactive: dose: 100.0 mg/kg/injection, schedule: Q01DX001 (ip), vehicle: saline 102 % of control

CC(C)C(=O)Nc1cc(Cl)ccc1Cl
inactive: dose: 100.0 mg/kg/injection, schedule: Q01DX001 (ip), vehicle: other 94 % of control | dose: 200.0 mg/kg/injection, schedule: Q01DX001 (ip), vehicle: other 97 % of control | dose: 400.0 mg/kg/injection, schedule: Q01DX001 (ip), vehicle: other 92 % of control

N\C([S-])=N/N=C\C(=N/N=C(\N)[S-])C(O)C(O)C(O)CO.[Pd+2] (stereo not drawn)
inactive: [16] 93 % of control | [17] 91 % of control

COCCNc1ccc(NCCOC)c2c1C(=O)c1ccccc1C2=O
inactive: dose: 87.5 mg/kg/injection, schedule: Q04DX003 (ip), vehicle: Klucel (hydroxypropylcellulose) (HPC) 91 % of control | dose: 175.0 mg/kg/injection, schedule: Q04DX003 (ip), vehicle: Klucel (hydroxypropylcellulose) (HPC) 91 % of control | dose: 350.0 mg/kg/injection, schedule: Q04DX003 (ip), vehicle: Klucel (hydroxypropylcellulose) (HPC) 88 % of control

O=C1c2ccccc2C(=O)N1OC1CCCCO1 (stereo not drawn)
inactive: [13] 104 % of control | [14] 110 % of control | [15] 97 % of control

Cc1ccc[nH]c1=O
inactive: [6] 95 % of control | [12] 93 % of control | [16] 107 % of control | dose: 200.0 mg/kg/injection, schedule: Q01DX009 (ip), vehicle: saline 91 % of control | [17] 109 % of control

O=c1[nH]c(-c2ccccc2)c(CO)c(=O)[nH]1
inactive: dose: 75.0 mg/kg/injection, schedule: Q04DX003 (ip), vehicle: Klucel (hydroxypropylcellulose) (HPC) 103 % of control | dose: 100.0 mg/kg/injection, schedule: Q01DX001 (ip), vehicle: Klucel (hydroxypropylcellulose) (HPC) 96 % of control | dose: 150.0 mg/kg/injection, schedule: Q04DX003 (ip), vehicle: Klucel (hydroxypropylcellulose) (HPC) 97 % of control | dose: 200.0 mg/kg/injection, schedule: Q01DX001 (ip), vehicle: Klucel (hydroxypropylcellulose) (HPC) 102 % of control | dose: 300.0 mg/kg/injection, schedule: Q04DX003 (ip), vehicle: Klucel (hydroxypropylcellulose) (HPC) 105 % of control | dose: 400.0 mg/kg/injection, schedule: Q01DX001 (ip), vehicle: Klucel (hydroxypropylcellulose) (HPC) 109 % of control

O=C(O)c1c(Cl)c(Cl)c(Cl)c(Cl)c1Cl
inactive: [18] 103 % of control | [19] 106 % of control | [20] 112 % of control

Cc1cc(O)c2c(c1)C(=O)C13C(=C2O)C(=O)C2C(O)C1C1C(O)C3C(=O)C3=C(O)c4c(O)cc(C)cc4C(=O)C321 (stereo not drawn)
inactive: dose: 20.0 mg/kg/injection, schedule: Q04DX003 (ip), vehicle: saline with Tween-80 107 % of control | dose: 40.0 mg/kg/injection, schedule: Q04DX003 (ip), vehicle: saline with Tween-80 100 % of control | dose: 80.0 mg/kg/injection, schedule: Q04DX003 (ip), vehicle: saline with Tween-80 102 % of control

O=C(NC(=S)Nc1cccc(F)c1)c1cccc([N+](=O)[O-])c1
inactive: [7] 98 % of control | [18] 94 % of control and 95 % of control | dose: 100.0 mg/kg/injection, schedule: Q04DX002 (ip), vehicle: saline with Tween-80 101 % of control and 111 % of control | [8] 98 % of control | [9] 93 % of control | [19] 98 % of control and 90 % of control | dose: 200.0 mg/kg/injection, schedule: Q04DX002 (ip), vehicle: saline with Tween-80 92 % of control and 96 % of control | [10] 102 % of control | [20] 92 % of control and 94 % of control | dose: 400.0 mg/kg/injection, schedule: Q04DX002 (ip), vehicle: saline with Tween-80 101 % of control and 103 % of control | [11] 101 % of control

N#Cc1ccc(N2CCCc3ccccc32)c([N+](=O)[O-])c1
inactive: dose: 100.0 mg/kg/injection, schedule: Q04DX003 (ip), vehicle: Klucel (hydroxypropylcellulose) (HPC) 107 % of control | dose: 200.0 mg/kg/injection, schedule: Q04DX003 (ip), vehicle: Klucel (hydroxypropylcellulose) (HPC) 92 % of control | dose: 400.0 mg/kg/injection, schedule: Q04DX003 (ip), vehicle: Klucel (hydroxypropylcellulose) (HPC) 91 % of control
